From patent publication US11806393B2, “Flavivirus peptide sequences, epitopes, and methods and uses thereof” (priority 2017, dated 2023)

Tested on: CD8+ T cells
Assay: IFNγ-ELISPOT of predicted H-2b-binding ZIKV peptides
Type: cell-based, mouse
Conditions: CD8+ T cells of mice infected with MR766 or FSS13025, day 7; positive: SFC per 10^6 CD8+ T cells ≥20 and stimulation index ≥2
Protocol: CD8^+ T cells were isolated by magnetic bead positive selection (Miltenyi Biotec, Germany). A total of 2×10^5 CD8^+ T cells were stimulated with 1×10^5 LPS-blast cells as antigen presenting cells (APCs) and 10 μg of individual ZIKV-derived peptide in 96-well flat-bottom plates (IMMOBILON™-P; Millipore, MA) coated with anti-mouse IFNγ monoclonal antibody (mAb) (clone AN18; Mabtech, Sweden) in triplicate. IFNγ-ELISPOT was performed as previously detailed (Elong Ngono et al., 2016). Positive peptides were those with a number of spot-forming cells (SFC) per 10^6 CD8^+ T cells ≥20 and a stimulation index ≥2 based on the negative control (DMSO). […]
The following results are with reference to FIG. 3A and FIG. 3B, where five-week-old LysMCre^+IFNAR^fl/fl were infected retro-orbitally with 10^4 FFU of ZIKV MR766 or FSS13025. […] A total of 244 peptides from ZIKV strains predicted to bind H-2Kb and H-2db with high affinity were screened. Two independent experiments for each ZIKV strain (n=5 mice for each experiment) were performed in triplicate per peptide. The data are expressed as the mean of spot forming cells (SFC) per 10^6 CD8^+ T cells, and error bars are represented as SEM. One-way ANOVA was used to compare the mean of each peptide with the control (DMSO) ([…]). […] The dotted line corresponds to the average amount of IFNγ produced by MOCK mice when stimulated with positive ZIKV-derived peptides (0.19% of IFNγ+CD8^+ T cells).

Row | Substance | Strains (ZIKV strain for which the peptide induced a positive T cell response, IFNγ-ELISPOT)
1 | 1 (AAFTFTKV) [compound 1] | MR766
2 | 2 (AAGAWYVYV) [compound 2] | MR766
3 | 3 (ISFATTLGV) [compound 3] | MR766
4 | 4 (MSYECPML) [compound 4] | MR766
5 | 5 (PSVRNGNEI) [compound 5] | MR766
6 | 6 (RAIWYMWL) [compound 6] | MR766
7 | 7 (RQVMNIVSSWL) [compound 7] | MR766
8 | 8 (SSIAARGYI) [compound 8] | MR766
9 | 9 (SSLVNGVVRL) [compound 9] | MR766
10 | 10 (SSWLWKEL) [compound 10] | MR766
11 | 11 (TGWSNWEEV) [compound 11] | MR766
12 | 12 (TTVSNMAEV) [compound 12] | MR766
13 | 13 (VMIFLSTAV) [compound 13] | MR766
14 | 14 (YSLECDPAVI) [compound 14] | MR766
15 | 15 (AAFTFTKI) [compound 15] | FSS
16 | 16 (SSLINGVVRL) [compound 16] | FSS
17 | 17 (TLGMNKCYI) [compound 17] | FSS
18 | 18 (IMVAVGLL) [compound 18] | MR766/FSS
19 | 19 (ATMSYECPM) [compound 19] | MR766/FSS
20 | 20 (CAEAPNMKVI) [compound 20] | MR766/FSS
21 | 21 (IGVSNRDFV) [compound 21] | MR766/FSS
22 | 22 (MAVDMQTLTPV) [compound 22] | MR766/FSS
23 | 23 (RMAVLGDTA) [compound 23] | MR766/FSS
24 | 24 (RSYCYEASI) [compound 24] | MR766/FSS
